Assay results published in ChEMBL document CHEMBL1150716, “Cytotoxic flavonols from Gutierrezia microcephala” (1987).
In brackets after ≈: the same amount, converted by molar mass.

Tested on: P388
Assay: Cytotoxicity against mouse P388 cells
Assay type: functional
Conditions: read-out: ED50 (the source's name)

| Compound | EC50 [µg/mL] |
| --- | --- |
| COc1cc(O)c2c(=O)c(OC)c(-c3ccc(O)c(O)c3)oc2c1 | 3.2 (≈ 9.69 µM) |
| COc1cc(-c2oc3cc(O)cc(O)c3c(=O)c2OC)ccc1O [3,3'-O-DIMETHYLQUERCETIN] | 1.7 (≈ 5.15 µM) |
